21 compounds from ChEMBL document CHEMBL3039007, “Structure-based identification of OATP1B1/3 inhibitors” (Mol Pharmacol, 2013) can be followed below.

The target in data set [1] is T1, Solute carrier organic anion transporter family member 1B1 (Homo sapiens, UniProt Q9Y6L6).
T1 sequence (Q9Y6L6 whole entry): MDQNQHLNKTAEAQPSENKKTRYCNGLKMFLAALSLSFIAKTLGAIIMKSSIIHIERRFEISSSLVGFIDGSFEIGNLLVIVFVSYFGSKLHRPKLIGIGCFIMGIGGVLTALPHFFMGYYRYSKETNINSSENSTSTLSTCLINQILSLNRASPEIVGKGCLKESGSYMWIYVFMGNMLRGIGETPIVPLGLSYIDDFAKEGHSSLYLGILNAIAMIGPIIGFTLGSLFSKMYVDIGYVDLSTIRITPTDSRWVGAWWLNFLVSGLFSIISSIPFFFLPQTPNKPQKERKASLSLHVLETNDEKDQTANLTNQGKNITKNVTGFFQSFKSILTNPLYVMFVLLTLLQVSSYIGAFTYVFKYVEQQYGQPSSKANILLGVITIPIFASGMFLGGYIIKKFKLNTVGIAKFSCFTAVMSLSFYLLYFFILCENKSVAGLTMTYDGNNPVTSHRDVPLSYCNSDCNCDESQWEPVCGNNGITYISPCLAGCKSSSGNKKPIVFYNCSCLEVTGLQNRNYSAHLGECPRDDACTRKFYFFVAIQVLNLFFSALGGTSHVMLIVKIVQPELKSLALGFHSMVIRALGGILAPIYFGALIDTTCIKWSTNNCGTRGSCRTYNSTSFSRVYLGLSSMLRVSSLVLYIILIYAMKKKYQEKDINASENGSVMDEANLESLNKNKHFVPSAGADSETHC
To be noted: chinese hamster, cho, 10 µM.

Data set [2] has as its target T2, Solute carrier organic anion transporter family member 1B3 (Homo sapiens, UniProt Q9NPD5).
T2 sequence (Q9NPD5 whole entry): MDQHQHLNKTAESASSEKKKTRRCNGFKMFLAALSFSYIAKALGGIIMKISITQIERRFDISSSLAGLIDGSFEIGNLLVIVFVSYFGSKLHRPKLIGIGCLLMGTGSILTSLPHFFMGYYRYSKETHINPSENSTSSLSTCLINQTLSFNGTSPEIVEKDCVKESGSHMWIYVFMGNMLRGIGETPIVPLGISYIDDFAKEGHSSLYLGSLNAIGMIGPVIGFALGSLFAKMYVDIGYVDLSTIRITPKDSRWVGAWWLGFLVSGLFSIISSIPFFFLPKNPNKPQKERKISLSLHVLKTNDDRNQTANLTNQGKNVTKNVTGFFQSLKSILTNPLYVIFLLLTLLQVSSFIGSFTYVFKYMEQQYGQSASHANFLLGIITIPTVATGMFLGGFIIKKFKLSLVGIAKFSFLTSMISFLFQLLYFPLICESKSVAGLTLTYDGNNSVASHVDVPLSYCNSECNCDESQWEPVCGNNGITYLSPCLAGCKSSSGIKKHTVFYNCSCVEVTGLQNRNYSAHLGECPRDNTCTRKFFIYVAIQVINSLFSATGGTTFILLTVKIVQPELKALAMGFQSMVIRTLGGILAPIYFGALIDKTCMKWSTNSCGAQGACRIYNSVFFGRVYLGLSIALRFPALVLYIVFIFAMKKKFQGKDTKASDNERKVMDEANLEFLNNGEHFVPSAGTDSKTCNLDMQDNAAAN
Conditions: chinese hamster, cho, 10 µM.

One may read the residual activity as the signal under treatment as a percentage of the control signal.

`O=C1c2ccccc2C(=O)c2ccccc21` [ANTHRAQUINONE]: the results for the residual activity in data set [1] and in data set [2] were 96.98% and 78.8%, respectively.

As to `COc1cc(O)cc(OC)c1OC` [ANTIAROL], the residual activity in data set [1] was found to be 95.16%; in data set [2] it was 113%.

`Cc1cc(=O)n(-c2ccccc2)n1C` [ANTIPYRINE]: the residual activity was found to be 79.71% in data set [1] and 82.49% in data set [2].

Take `O=C(O)C1CC([C@@H]2CCCCN2)CN2CCCCC12` (some centres not stated) [APHYLLIC ACID]: the residual activity in data set [1] came to 83.2%; in data set [2], 100.7%.

On to `CC(=O)Oc1ccc(-c2cc(=O)c3c(OC(C)=O)cc(OC(C)=O)cc3o2)cc1` [APIGENIN TRIACETATE], for which the residual activity stood at 92.99% in data set [1] and 94.69% in data set [2].

Regarding `O=c1cc(-c2ccc(O)cc2)oc2cc(O)cc(O)c12` [APIGENIN], the residual activity in data set [1] is 84.2%; in data set [2] it was 134.2%.

Consider `O=c1cc(-c2ccc(O)cc2)oc2cc(O[C@@H]3O[C@H](CO)[C@@H](O)[C@H](O)[C@H]3O)cc(O)c12` [APIGETRIN], for which the residual activity in data set [1] stood at 204.4%; in data set [2] it was 134.6%.

As to `O=c1cc(-c2ccc(O)cc2)oc2cc(O[C@@H]3O[C@H](CO)[C@@H](O)[C@H](O)[C@H]3O[C@@H]3OC[C@](O)(CO)[C@H]3O)cc(O)c12` [APIIN], the residual activity in data set [1] came to 69.17%; in data set [2] it was 141.5%.

Take `C=CCc1cc(OC)c2c(c1OC)OCO2` [APIOL]: the residual activity in data set [1] came out at 213.1%; in data set [2], 107.2%.

Consider `OC[C@H]1O[C@@H](Oc2ccc(O)cc2)[C@H](O)[C@@H](O)[C@@H]1O` [ARBUTIN], for which the residual activity is listed as 103.7% in data set [1] and 113.4% in data set [2].

In the case of `N=C(N)NCCCCNC(=N)N.O=S(=O)(O)O` [ARCAINE SULFATE], the residual activity in data set [1] stood at 78.37%; in data set [2] it was 96.72%.

`Br.COC(=O)C1=CCCN(C)C1` [ARECOLINE HYDROBROMIDE]: the results for the residual activity in data set [1] and in data set [2] were 112.6% and 103.7%, respectively.

Take `COc1cccc2c1cc([N+](=O)[O-])c1c(C(=O)O)cc3c(c12)OCO3` [ARISTOLOCHIC ACID]: the residual activity stood at 76.91% in data set [1] and 107.6% in data set [2].

Turning to `CCCCCC(=O)Cc1cc(O)cc(O)c1C(=O)Oc1cc(CC(=O)CCCCC)c(C(=O)O)c(OC)c1` [ARTHONIOIC ACID], the results for the residual activity in data set [1] and in data set [2] were 52.3% and 96.29%, respectively.

As for `c1ccc2c(Cc3c[nH]c4ccccc34)c[nH]c2c1` [ARUNDINE], the residual activity in data set [1] turned out to be 101.6%; in data set [2], 110.1%.

As to `c1cc2c(cc1[C@H]1OC[C@H]3[C@@H]1CO[C@H]3c1ccc3c(c1)OCO3)OCO2` [ASARININ], the residual activity worked out at 107.7% in data set [1] and 116.8% in data set [2].

On to `O=C1O[C@H]([C@@H](O)CO)C(O)=C1O` [ASCORBIC ACID], for which the residual activity in data set [1] stood at 84.23%; in data set [2], 96.05%.

Turning to `CC1=C(/C=C/C(C)=C/C=C/C(C)=C/C=C/C=C(C)/C=C/C=C(C)/C=C/C2=C(C)C(=O)[C@@H](O)CC2(C)C)C(C)(C)C[C@H](O)C1=O` [ASTAXANTHIN], the residual activity was determined as 95.25% in data set [1] and 87.19% in data set [2].

Consider `COc1ccc(CCN2CCC(Nc3nc4ccccc4n3Cc3ccc(F)cc3)CC2)cc1` [ASTEMIZOLE], for which the results for the residual activity in data set [1] and in data set [2] were 127.5% and 97.68%, respectively.

In the case of `CC(C)NCC(O)COc1ccc(CC(N)=O)cc1` (configuration not stated) [ATENOLOL], the values for the residual activity in data set [1] and in data set [2] were 78.26% and 93.81%, respectively.

As for `O=C1c2ccccc2C(=O)c2c1ccc(O)c2O` [ATHRAQUINONES A], the figures for the residual activity in data set [1] and in data set [2] were 84.81% and 93.11%, respectively.
